From ChEMBL document CHEMBL4602665, “Amphiepicoccins A-J: Epipolythiodioxopiperazines from the Fish-Gill-Derived Fungus Epicoccum nigrum HDN17-88” (J Nat Prod, 2020)
Converted amounts (≈) assume the structure as drawn.

The compounds below were run on Bacillus subtilis (assay: Growth inhibition of Bacillus subtilis). Conditions: not given.
Format: functional

Row | Compound | MIC [µM]
1 | CO[C@H]1CC(=O)[C@@H]2C[C@@]3(SC)C(=O)N4[C@@H]5[C@@H](O)[C@H]6CC(=O)[C@@H]5C[C@@]4(S6)C(=O)N3[C@@H]2[C@H]1O | 25 (≈ 11.7 µg/mL)
2 | CO[C@H]1CC(=O)[C@@H]2C[C@@]3(SC)C(=O)N4[C@@H]5[C@@H](O)[C@H]6CC(=O)[C@@H]5C[C@@]4(SS6)C(=O)N3[C@@H]2[C@H]1O | 13 (≈ 6.51 µg/mL)

Each compound was assayed on Human alphaherpesvirus 2 (assay: Antiviral activity against Herpes simplex virus 2 infected in African green monkey Vero cells assessed as inhibition of virus-induced cytopathogenic effect after 24 hrs by crystal violet staining based assay). Conditions: Human alphaherpesvirus 2, Vero.
Format: functional, organism-based

Row | Compound | IC50 [µM]
3 | CO[C@H]1CC(=O)[C@@H]2C[C@@]3(SC)C(=O)N4[C@@H]5[C@@H](O)[C@H]6CC(=O)[C@@H]5C[C@@]4(S6)C(=O)N3[C@@H]2[C@H]1O | 29
4 | O=C1C[C@H]2SS[C@@]34C[C@@H]1[C@@H]([C@H]2O)N3C(=O)c1cc2cc(O)ccc2n1C4=O | 70
5 | CS[C@@]12C[C@H]3C(=O)C=C[C@H](O)[C@H]3N1C(=O)[C@@]13C[C@H]4C(=O)C[C@@H](SS1)[C@H](O)[C@H]4N3C2=O | 64
6 | Nc1nc2c(ncn2COCCO)c(=O)[nH]1 [ACYCLOVIR] | 31
